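Protocol summary: plate cells (96-well), add compound at 5 concentrations, incubate 48 h, interpolate endpoints linearly. Abbreviation: GI50, concentration required for 50% inhibition of growth.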 Activity calls are given as the source filed them. No stated cut-off is given here; in the data, active = GI50 up to about 1.1 µM and inactive = higher.
Assays:
Assay in all cases: growth of human tumour cells (NCI), 48 h
HT-29 = system: HT-29
NCI-H226 = system: NCI-H226
M14 = system: M14
OVCAR-5 = system: OVCAR-5
SK-MEL-28 = system: SK-MEL-28
SK-OV-3 = system: SK-OV-3
OVCAR-4 = system: OVCAR-4
UO-31 = system: UO-31
U-251 = system: U-251
SN12C = system: SN12C
DMS-114 = system: DMS-114
A549 = system: A549
NCI-H460 = system: NCI-H460
RPMI-8226 = system: RPMI-8226
OVCAR-3 = system: OVCAR-3
SNB-75 = system: SNB-75
Malme-3M = system: Malme-3M
NCI-H522 = system: NCI-H522
SF-539 = system: SF-539
DLD-1 = system: DLD-1
UACC-257 = system: UACC-257
HCT-116 = system: HCT-116
KM12 = system: KM12
SK-MEL-2 = system: SK-MEL-2
DMS-273 = system: DMS-273
OVCAR-8 = system: OVCAR-8
HCT-15 = system: HCT-15
SF-295 = system: SF-295
SW-620 = system: SW-620
SK-MEL-5 = system: SK-MEL-5
EKVX = system: EKVX
MOLT-4 = system: MOLT-4
SNB-78 = system: SNB-78
UACC-62 = system: UACC-62
NCI-H23 = system: NCI-H23
HOP-62 = system: HOP-62
HCC 2998 = system: HCC 2998
RXF 393 = system: RXF 393
HOP-18 = system: HOP-18
786-0 = system: 786-0
LOX IMVI = system: LOX IMVI
LXFL 529 = system: LXFL 529
SNB-19 = system: SNB-19
SF-268 = system: SF-268
HOP-92 = system: HOP-92
CAKI-1 = system: CAKI-1
ACHN = system: ACHN
KM-20L2 = system: KM-20L2
XF498 = system: XF498
M19-MEL = system: M19-MEL
TK-10 = system: TK-10
COLO 205 = system: COLO 205
CCRF-CEM = system: CCRF-CEM
IGROV-1 = system: IGROV-1
K562 = system: K562
A498 = system: A498
RXF 631 = system: RXF 631
HL-60 = system: HL-60
SR = system: SR

With `CCOP(=O)(OCC)/C(C#N)=C\c1ccsc1` the GI50 (HT-29) was > 100 µM (inactive), the GI50 (NCI-H226) was > 100 µM (inactive) and the GI50 (M14) was > 100 µM (inactive). The GI50 (OVCAR-5) was > 100 µM (inactive), the GI50 (SK-MEL-28) was > 100 µM (inactive) and the GI50 (SK-OV-3) was > 100 µM (inactive). The GI50 (OVCAR-4) was > 100 µM (inactive), the GI50 (UO-31) was > 100 µM (inactive) and the GI50 (U-251) was > 100 µM (inactive). For the same compound, the GI50 (SN12C) was > 100 µM (inactive), the GI50 (DMS-114) was > 100 µM (inactive) and the GI50 (A549) was > 100 µM (inactive). For the same compound, the GI50 (NCI-H460) was > 100 µM (inactive), the GI50 (RPMI-8226) was > 100 µM (inactive) and the GI50 (OVCAR-3) was > 100 µM (inactive). For the same compound, the GI50 (SNB-75) was > 100 µM (inactive), the GI50 (Malme-3M) was > 100 µM (inactive) and the GI50 (NCI-H522) was > 100 µM (inactive). The GI50 (SF-539) was > 100 µM (inactive), the GI50 (DLD-1) was > 100 µM (inactive) and the GI50 (UACC-257) was > 100 µM (inactive). The GI50 (HCT-116) was > 100 µM (inactive), the GI50 (KM12) was > 100 µM (inactive) and the GI50 (SK-MEL-2) was > 100 µM (inactive). The GI50 (DMS-273) was > 100 µM (inactive), the GI50 (OVCAR-8) was > 100 µM (inactive) and the GI50 (HCT-15) was over 100 µM. For the same compound, the GI50 (SF-295) was > 100 µM (inactive), the GI50 (SW-620) was > 100 µM (inactive) and the GI50 (SK-MEL-5) was > 100 µM (inactive). The GI50 (EKVX) was > 100 µM (inactive), the GI50 (MOLT-4) was > 100 µM (inactive) and the GI50 (SNB-78) was > 100 µM (inactive). For the same compound, the GI50 (UACC-62) was > 100 µM (inactive), the GI50 (NCI-H23) was > 100 µM (inactive) and the GI50 (HOP-62) was > 100 µM (inactive). The GI50 (HCC 2998) was > 100 µM (inactive), the GI50 (RXF 393) was > 100 µM (inactive) and the GI50 (HOP-18) was > 100 µM (inactive). The GI50 (786-0) was > 100 µM (inactive), the GI50 (LOX IMVI) was > 100 µM (inactive) and the GI50 (LXFL 529) was > 100 µM (inactive). The GI50 (SNB-19) was > 100 µM (inactive), the GI50 (SF-268) was > 100 µM (inactive) and the GI50 (HOP-92) was > 100 µM (inactive). For the same compound, the GI50 (CAKI-1) was > 100 µM (inactive), the GI50 (ACHN) was > 100 µM (inactive) and the GI50 (KM-20L2) was > 100 µM (inactive). The GI50 (XF498) was > 100 µM (inactive), the GI50 (M19-MEL) was > 100 µM (inactive) and the GI50 (TK-10) was > 100 µM (inactive). The GI50 (COLO 205) was > 100 µM (inactive).

In the case of `COC(=O)N/N=C(\C)c1c(O)cc(C)oc1=O`, the GI50 (HT-29) is reported as 65.3 µM (inactive), the GI50 (NCI-H226) is reported as > 100 µM (inactive) and the GI50 (M14) is reported as 35.2 µM (inactive). The GI50 (CCRF-CEM) was 46 µM (inactive), the GI50 (SK-MEL-28) was 50.8 µM (inactive) and the GI50 (SK-OV-3) was > 100 µM (inactive). The GI50 (OVCAR-4) was > 100 µM (inactive), the GI50 (UO-31) was 40.1 µM (inactive) and the GI50 (U-251) was 28.8 µM (inactive). The GI50 (SN12C) was 78.5 µM (inactive), the GI50 (IGROV-1) was > 100 µM (inactive) and the GI50 (A549) was 29 µM (inactive). The GI50 (NCI-H460) was 37.8 µM (inactive), the GI50 (K562) was 17.5 µM (inactive) and the GI50 (SNB-75) was > 100 µM (inactive). The GI50 (Malme-3M) was > 100 µM (inactive), the GI50 (SF-539) was 14.7 µM (inactive) and the GI50 (DLD-1) was 30.1 µM (inactive). For the same compound, the GI50 (UACC-257) was > 100 µM (inactive), the GI50 (HCT-116) was 98.4 µM (inactive) and the GI50 (KM12) was 52.6 µM (inactive). For the same compound, the GI50 (SK-MEL-2) was 41.4 µM (inactive), the GI50 (A498) was > 100 µM (inactive) and the GI50 (OVCAR-8) was 59.3 µM (inactive). The GI50 (HCT-15) was 17 µM, the GI50 (SF-295) was 29.4 µM (inactive) and the GI50 (SW-620) was 25.9 µM (inactive). The GI50 (SK-MEL-5) was 50.8 µM (inactive), the GI50 (EKVX) was > 100 µM (inactive) and the GI50 (MOLT-4) was 18.5 µM (inactive). For the same compound, the GI50 (SNB-78) was > 100 µM (inactive), the GI50 (UACC-62) was 5.62 µM (inactive) and the GI50 (NCI-H23) was > 100 µM (inactive). The GI50 (RXF 631) was > 100 µM (inactive), the GI50 (HOP-62) was 36.2 µM (inactive) and the GI50 (HCC 2998) was 43.9 µM (inactive). The GI50 (786-0) was 56.2 µM (inactive), the GI50 (LOX IMVI) was 7.85 µM (inactive) and the GI50 (LXFL 529) was 10.8 µM (inactive). The GI50 (SNB-19) was > 100 µM (inactive), the GI50 (HL-60) was 45.2 µM (inactive) and the GI50 (SF-268) was 22.1 µM (inactive). For the same compound, the GI50 (HOP-92) was > 100 µM (inactive), the GI50 (ACHN) was 25.8 µM (inactive) and the GI50 (KM-20L2) was 22.1 µM (inactive). For the same compound, the GI50 (TK-10) was 33.2 µM (inactive) and the GI50 (SR) was 37.2 µM (inactive).

For `O=C1NC2(NC(=O)C1=O)Nc1ccccc1S2`, the GI50 (HT-29) was 67 µM (inactive), the GI50 (NCI-H226) was > 58.6 µM (inactive) and the GI50 (M14) was 44.5 µM (inactive). The GI50 (CCRF-CEM) was 20.2 µM (inactive), the GI50 (OVCAR-5) was > 100 µM (inactive) and the GI50 (SK-MEL-28) was 43.5 µM (inactive). The GI50 (SK-OV-3) was > 100 µM (inactive), the GI50 (OVCAR-4) was 40 µM (inactive) and the GI50 (UO-31) was 30.7 µM (inactive). For the same compound, the GI50 (U-251) was 30.9 µM (inactive), the GI50 (SN12C) was 23.8 µM (inactive) and the GI50 (DMS-114) was 28.4 µM (inactive). The GI50 (IGROV-1) was > 92.7 µM (inactive), the GI50 (A549) was > 60.5 µM (inactive) and the GI50 (NCI-H460) was 51.5 µM (inactive). For the same compound, the GI50 (RPMI-8226) was 21.6 µM (inactive), the GI50 (K562) was 39.8 µM (inactive) and the GI50 (OVCAR-3) was > 89.3 µM (inactive). For the same compound, the GI50 (SNB-75) was 68.7 µM (inactive), the GI50 (Malme-3M) was 97.1 µM (inactive) and the GI50 (NCI-H522) was 22.1 µM (inactive). The GI50 (SF-539) was 27 µM (inactive), the GI50 (DLD-1) was 23.7 µM (inactive) and the GI50 (UACC-257) was > 61.4 µM (inactive). For the same compound, the GI50 (HCT-116) was 19.2 µM (inactive), the GI50 (KM12) was > 80.4 µM (inactive) and the GI50 (SK-MEL-2) was 55.8 µM (inactive). The GI50 (DMS-273) was 42.1 µM (inactive), the GI50 (A498) was 99.1 µM (inactive) and the GI50 (OVCAR-8) was 58.7 µM (inactive). The GI50 (HCT-15) was 33.7 µM, the GI50 (SF-295) was 38.6 µM (inactive) and the GI50 (SW-620) was 12.9 µM (inactive). The GI50 (SK-MEL-5) was 32.7 µM (inactive), the GI50 (EKVX) was > 100 µM (inactive) and the GI50 (MOLT-4) was 27.5 µM (inactive). For the same compound, the GI50 (SNB-78) was > 67.1 µM (inactive), the GI50 (UACC-62) was 23.8 µM (inactive) and the GI50 (NCI-H23) was > 63 µM (inactive). The GI50 (RXF 631) was 20 µM (inactive), the GI50 (HOP-62) was > 83.8 µM (inactive) and the GI50 (HCC 2998) was > 65.5 µM (inactive). For the same compound, the GI50 (RXF 393) was > 54.6 µM (inactive), the GI50 (HOP-18) was > 100 µM (inactive) and the GI50 (786-0) was 21.7 µM (inactive). The GI50 (LOX IMVI) was 18.9 µM (inactive), the GI50 (LXFL 529) was 36.6 µM (inactive) and the GI50 (SNB-19) was > 100 µM (inactive). For the same compound, the GI50 (HL-60) was 21.6 µM (inactive), the GI50 (SF-268) was 24.8 µM (inactive) and the GI50 (HOP-92) was > 100 µM (inactive). The GI50 (CAKI-1) was 62.5 µM (inactive), the GI50 (ACHN) was 33.4 µM (inactive) and the GI50 (KM-20L2) was > 100 µM (inactive). The GI50 (TK-10) was > 100 µM (inactive), the GI50 (SR) was 24.5 µM (inactive) and the GI50 (COLO 205) was 21.6 µM (inactive).
